What all share (format): cell-based
The test system of assay [1] is Aβ40 generation from APP in CHO cells stably expressing hAPP-REPNL751. The assay can be described thus: Aβ-lowering electrochemiluminescent (MSD ECL) assay of conditioned media, Aβ40. The procedure: (§1) The activity of compounds in lowering the generation of Aβ40 and Aβ42, the most abundant forms of beta amyloid, from APP (amyloid precursor protein) was measured in an electrochemiluminescent (ECL) assay of conditioned media from chinese hamster ovary (CHO) cells stably expressing the human amyloid precursor protein (APP) reporter construct, hAPP-REPNL751 [Sughir, R. et al.; J. Biolog. Chem. (1992) 267: 25602-25608]. Aβ peptides were secreted at high levels into cell culture media by cells carrying the human APP transgene; compounds were tested for their capacity to modulate this production. The Aβ peptide in the conditioned medium was quantitated by a sandwich immunoassay with the Meso Scale Discovery® (MSD®) ECL detection system. Cell metabolism was measured using MTS salt kit (containing a tetrazolium compound 3-(4,5-dimethylthiazol-2-yl)-5-(3-carboxymethoxyphenyl)-2-(4-sulfophenyl)-2H-tetrazolium, inner salt; MTS(a) which measures the mitochondrial activity of cells by the bioreduction of Owen's reagent). This assay consists of the following protocol: • 1. Aβ-Lowering Assay. • a. hAPP-REPNL751 CHO cells were seeded into 96 well plates and incubated until about 60-70% confluence. • b. Medium was removed, cells were washed, and fresh serum-free medium (Ultraculture) was put on cells. • c. Compounds were diluted and then added to the cell medium. • d. Cells were incubated, with compounds, for indicated times. • e. Streptavidin coated Meso Scale Discover (MSD) plates (MSD standard Multi-Array™ 96 plate, cat. #P11SA-1) were washed 3× with TTBS (Tris-buffered saline, the Tween® 20 reagent). • f. 20 μL conditioned medium were removed from the cells, and added to the TTBS prewashed MSD® plates. • g. Standard curve dilutions of synthetic Aβ40 and Aβ42 were prepared and added to the MSD® plates. • h. A reagent mix was prepared in 1% MSD® Blocker A (appropriate concentration of biotinylated 6E10 antibody, detection antibodies to Aβ40, Aβ42, and MSD ruthinylated tag antibody). • i. 20 μL reagent mix was distributed to sample plate. • j. Plates were incubated with shaking overnight at 4° C. • k. Plates were washed 3× with TTBS. • l. 150 μL read buffer was added per well (MSD Read Buffer T, cat#R92TC-2, made 1× with distilled water). • m. Plates were read in MSD plate reader within 2 hours. • 2. MTS Assay: • a. Cells were seeded into 96 well plates and incubated until about 60-70% confluence. • b. Medium was removed, cells were washed, and fresh serum-free medium (Ultraculture) was put on cells. • c. Compounds were diluted and then added to the cell medium. • d. Cells were incubated, with compounds, for indicated times. • e. Using a robot, conditioned medium was removed from the cells, and transferred to a TTBS prewashed MSD plate. • f. Cells were washed 2× in phosphate buffered saline (PBS) and an MTS solution was plated onto the cells. After 1 hour, they were read on a plate reader at 560 nm to determine metabolic activity. • 3. Analysis of Results. • Assays were accepted or rejected based upon specific performance criteria, including regression coefficient of standard curve, adequate signal to noise ratio, sample signals lying within the range of the standard curve, etc. The specific parameters were established for each tissue type prior to performing an assay, and were included in the full analytical procedure. • Plate data from both assays (MTS and MSD ELISA) were transferred into a Microsoft Excel® spreadsheet to determine the toxicity, and inhibition caused by the compounds. Standard curves of Aβ were generated using LSW toolbar Hill slope model 42, with 1/y weighting (general sigmoidal curve with Hill slope, a to d; y=(a−d)/(1+(x/c)̂b)+d). […]

For assay [2], the system named is Aβ42 generation from APP in CHO cells stably expressing hAPP-REPNL751. Briefly: Aβ-lowering electrochemiluminescent (MSD ECL) assay of conditioned media, Aβ42. The procedure: as §1
Assay [3] concerns S3 (γ-secretase like) processing of Notch (Mouse Notch1 with deleted extracellular domain). Briefly: Whole cell functional Notch assay (HES1-SEAP reporter, P8H6 CHO-K1 cells). The following applies: Notch assay reference compounds, read-out: EC50 (Notch induced SEAP levels). The source says: The activity of compounds in cleaving Notch can be measured in a whole cell functional Notch assay. This is an assay to determine the effects of compounds on the S3 (γ-secretase like) processing of Notch. […] SEAP transactivation is then detected by luminescent assay. The assay consists of the following protocol: • 1. Materials and Methods: • (a) Materials: The P8H6 inducible stable cell line was derived from T-REx™ CHO-K1, stably expressing Tet repressor, Notch (pZX1) and HES1-SEAP (pZX2) reporter constructs. A Wallace 1450® Victor Luminescence Counter is used to measure luminescent signal. […] For vehicle samples, the same volume of 0.2% DMSO/25 mM HEPES buffer was added. • Cells were incubated at 37° C., 5% CO2 for 48 hours. • SEAP levels in the conditioned media were assessed using the Clontech GreatEscAPe™ SEAP Chemiluminescence detection kit according to the manufacturer's instruction. […] After cooling, assay buffer was added, and the sample was incubated with the CSPD® substrate. • Luminescence was measured in a Wallace 1450 Victor luminescence counter. • 2. […] EC50 was calculated by […] using sigmoidal inhibition from B0 to nsb model (model 59). […] Inhibition of Notch processing was measured using the stable transfection reporter assay. […]

The mark [4] stands for this setting: electrochemiluminescent assay, hAPP-REPNL751 CHO cells, read-out: C40: EC50 for inhibition of Aβ40.
Setting [5] is: electrochemiluminescent assay, hAPP-REPNL751 CHO cells, read-out: C42: EC50 for inhibition of Aβ42.
Setting [6] is: CHO, reference standards of the beta amyloid assay, read-out: EC50αβ42.

Counter-ions that a name gives are not always drawn. Like-named read-outs stand apart in the source and are kept apart here.

With `O=S(=O)(O)OC[C@@H](NS(=O)(=O)c1ccc(Cl)s1)C(C(F)(F)F)C(F)(F)F` [Example 1, (2S)-2-{[(5-chloro-2-thienyl)sulfonyl]amino}-4,4,4-trifluoro-3-(trifluoromethyl)butyl Hydrogen Sulfate, Sodium Salt], the EC50 in assay [1] (setting [4]) was found to be 447 nM; in assay [2] (setting [5]) it was 445 nM.
In the case of `CC(C)[C@H](O)C(=O)N[C@@H](C)C(=O)N[C@@H]1C(=O)N(C)CCc2ccccc21` [(2S)-2-hydroxy-3-methyl-N-((1S)-1-methyl-2-{[(1S)-3-methyl-2-oxo-2,3,4,5-tetrahydro-1H-3-benzazepin-1-yl]amino}-2-oxoethyl)butanamide, reference compound], the EC50 in assay [3] turned out to be 68 nM; in assay [2] (setting [6]), 79 nM.
Consider `O=S(=O)(O)OC[C@@H](NS(=O)(=O)c1ccc(Cl)cc1)C(C(F)(F)F)C(F)(F)F` [Example 5], for which the EC50 is 4030 nM in assay [1] (CHO, read-out: C40: EC50 for inhibition of Aβ40) and 4150 nM in assay [2] (CHO, read-out: C42: EC50 for inhibition of Aβ42).
For `CC[C@H](C)[C@@H](COS(=O)(=O)O)NS(=O)(=O)c1ccc(Cl)cc1` [Example 4, (2S,3S)-2-{[(4-chlorophenyl)sulfonyl]amino}-3-methylpentyl Hydrogen Sulfate, Sodium Salt], the EC50 in assay [1] (setting [4]) and in assay [2] (setting [5]) was 15000 nM in each case.
Consider `CCC(CC)[C@@H](COS(=O)(=O)O)NS(=O)(=O)c1ccc(Cl)s1` [Example 3, (2S)-2-{[(5-chloro-2-thienyl)sulfonyl]amino}-3-ethylpentyl Hydrogen Sulfate, Sodium Salt], for which the EC50 in assay [1] (setting [4]) stood at 243 nM; in assay [2] (setting [5]) it was 234 nM.
For `CC[C@@H](C)[C@@H](COS(=O)(=O)O)NS(=O)(=O)c1ccc(Cl)s1` [Example 2, (2S,3R)-2-{[(5-chloro-2-thienyl)sulfonyl]amino}-3-methylpentyl Hydrogen Sulfate, Sodium Salt], in that order: 15000 nM and 15000 nM.
On to `O=S(=O)(O)OC[C@@H](NS(=O)(=O)c1ccc(Cl)s1)[C@@H](c1cc(F)cc(F)c1)C(F)(F)F` [Example 6, (2S,3R)-2-{[(5-chloro-2-thienyl)sulfonyl]amino}-3-(3,5-difluorophenyl)-4,4,4-trifluorobutyl Hydrogen Sulfate, Sodium Salt], for which the EC50 in assay [1] (setting [4]) was found to be 1740 nM; in assay [2] (setting [5]), 1290 nM.
As for `CC[C@H](CC(F)(F)F)[C@@H](CO)NS(=O)(=O)c1ccc(Cl)s1` [5-chloro-N-[(1S,2R)-2-ethyl-4,4,4-trifluoro-1-(hydroxymethyl)butyl]thiophene-2-sulfonamide, reference compound], the EC50 worked out at 6 nM in assay [1] (CHO, reference standards of the beta amyloid assay, read-out: EC50αβ40) and 5 nM in assay [2] (setting [6]).

(Values after patent US20090181932A1, “COMPOSITIONS CONTAINING O-SULFATE AND O-PHOSPHATE CONTAINING ARYL SULFONAMIDE DERIVATIVES USEFUL AS beta-AMYLOID INHIBITORS” (Wyeth, priority 2008, published 2009).)
